Earlier results on one molecule are cited in PubChem BioAssay AID1259409 (Chemical Carcinogenesis Research Information System (CCRIS), 2018).

The test system of this series is rodent chemically induced tumor inhibition, incidence and multiplicity. The series is described as follows: CCRIS tumor inhibitor studies. The following applies: for outcome: Carcinogen: NONE, Strain/Sex: APC/MIN/MALE.

As to `NCCCC(N)(C(=O)O)C(F)F` (centres undefined), the “tumour outcome (control, treated, inhibition, significance)” value is, setting by setting: (Carcinogen: N-METHYL-N-NITROSOUREA, 684-93-5, Dose [Inhibitor]: 0.5 ML OF 2% AGENT IN 0.9% SALINE SOLUTION TWICE IN WK 1 THEN ONCE 2 HR POST CARCINOGEN TREATMENT THEN TWICE IN WK 2 (ST, Route [Inhibitor]: INTRAVESICAL, Species: RAT, Strain/Sex: F344/MALE, Target Tissue: Type of Lesion: BLADDER: CARCINOMA, Dose [Carcinogen]: 0.25 MG IN 0.5 ML OF 0.9% SALINE SOLUTION ONCE, Promoter: URINE) 31/36 (86%), 27/38 (71%), 17%, not calculated; (Carcinogen: N-METHYL-N-NITROSOUREA, 684-93-5, Dose [Inhibitor]: 2% IN URINE 2/WK FOR 30 WK BEGINNING 1 WK POST CARCINOGEN DOSE (STUDY DURATION: 35 WK), Route [Inhibitor]: INTRAVESICAL, Species: RAT, Strain/Sex: F344/MALE, Target Tissue: Type of Lesion: BLADDER: CARCINOMA, Dose [Carcinogen]: 0.25 MG IN 0.5 ML OF 0.9% SALINE SOLUTION ONCE, Promoter: URINE) 25/36 (69%), 13/35 (37%), 46%, p<0.025; (Carcinogen: N-METHYL-N-NITROSOUREA, 684-93-5, Dose [Inhibitor]: 2% IN URINE 2/WK FOR 41 WK BEGINNING 1 WK POST CARCINOGEN DOSE (STUDY DURATION: 50 WK), Route [Inhibitor]: INTRAVESICAL, Species: RAT, Strain/Sex: F344/MALE, Target Tissue: Type of Lesion: BLADDER: CARCINOMA, Dose [Carcinogen]: 0.25 MG IN 0.5 ML OF 0.9% SALINE SOLUTION ONCE, Promoter: URINE) 31/36 (86%), 30/38 (79%), 8%, not calculated; (Carcinogen: UV-A (20%), UV-B (80%) (WESTINGHOUSE FS320 SUNLAMP IN 280-400 NM), Dose [Inhibitor]: 0, 0.4% IN DRINKING WATER FOR 8 WK BEGINNING 22 WK POST CARCINOGEN FIRST DOSE (STUDY DURATION: 30 WK), Route [Inhibitor]: ORAL, Species: MOUSE, Strain/Sex: SKH:HR-1-HBR/FEMALE, Target Tissue: Type of Lesion: SKIN: TUMOR, Dose [Carcinogen]: 90 MJ/CM2 3 TIMES/WK, DOSE INCREASED BY 10% UNTIL REACHED 175 MJ/CM^2, BEGINNING 2 D POST AGENT DOSE, TREATMENT WS STOPP, Promoter: NONE) “?/? (100%), ?/? (95%), 5%, data presented graphically, not calculated”; (Carcinogen: UV-A (20%), UV-B (80%) (WESTINGHOUSE FS320 SUNLAMP IN 280-400 NM), Dose [Inhibitor]: 0, 0.4% IN DRINKING WATER FOR 18 WK BEGINNING 12 WK POST CARCINOGEN FIRST DOSE (STUDY DURATION: 30 WK), Route [Inhibitor]: ORAL, Species: MOUSE, Strain/Sex: SKH:HR-1-HBR/FEMALE, Target Tissue: Type of Lesion: SKIN: TUMOR, Dose [Carcinogen]: 90 MJ/CM2 3 TIMES/WK, DOSE INCREASED BY 10% UNTIL REACHED 175 MJ/CM^2, BEGINNING 2 D POST AGENT DOSE, TREATMENT WS STOPP, Promoter: NONE) “?/? (100%), ?/? (100%), 0%, data presented graphically, not calculated”; (Carcinogen: UV-A (20%), UV-B (80%) (WESTINGHOUSE FS320 SUNLAMP IN 280-400 NM), Dose [Inhibitor]: 0, 0.4% IN DRINKING WATER FOR DURATION OF STUDY (STUDY DURATION: 30 WK), Route [Inhibitor]: ORAL, Species: MOUSE, Strain/Sex: SKH:HR-1-HBR/FEMALE, Target Tissue: Type of Lesion: SKIN: TUMOR, Dose [Carcinogen]: 90 MJ/CM2 3 TIMES/WK, DOSE INCREASED BY 10% UNTIL REACHED 175 MJ/CM^2, BEGINNING 2 D POST AGENT DOSE, TREATMENT WS STOPP, Promoter: NONE) “?/? (100%), ?/? (73%), 27%, data presented graphically, not calculated”. Also, the “tumour outcome (control, treated, inhibition, significance)” value is, setting by setting: (Carcinogen: UVB IRRADIATION, Dose [Inhibitor]: 0, 1% IN DRINKING WATER FOR DURATION OF STUDY BEGINNING 3 WK PRIOR TO CARCINOGEN TREATMENT (STUDY DURATION: 36 WK), Route [Inhibitor]: ORAL, Species: MOUSE, Strain/Sex: BALB/FEMALE, Target Tissue: Type of Lesion: SKIN: TUMOR, Dose [Carcinogen]: 1273 KJM2 TOTAL DOSE ADMINISTERED IN 30 MIN TREATMENTS 5 D/WK, Promoter: NONE USED) 38%, 9%, 76%, p=0.025; (Dose [Inhibitor]: 0, 2% IN DRINKING WATER FOR 3 WK THEN REDUCED TO 1% FOR DURATION OF STUDY (STUDY DURATION: 9 MO), Route [Inhibitor]: ORAL, Species: RAT, Strain/Sex: F344/MALE, Target Tissue: Type of Lesion: LIVER: HEPATOCELLULAR CARCINOMA, Dose [Carcinogen]: 25 UG IN 0.2 ML DMSO 5 D/WK FOR 4 WK, Promoter: NONE USED) 40%, 16%, 60%, p<0.01; (Dose [Inhibitor]: 0, 2% IN DRINKING WATER FOR 3 WK THEN REDUCED TO 1% FOR DURATION OF STUDY ADMINISTERED TO RATS MAINTAINED ON CHOLINE-DEF, Route [Inhibitor]: ORAL, Species: RAT, Strain/Sex: F344/MALE, Target Tissue: Type of Lesion: LIVER: HEPATOCELLULAR CARCINOMA, Dose [Carcinogen]: 25 UG IN 0.2 ML DMSO 5 D/WK FOR 4 WK, Promoter: NONE USED) 71%, 28%, 61%, not calculated. Besides, the outcome is on record as 10.38, 3.67, 65%, p<0.001 (Dose [Inhibitor]: 0.5% IN DRINKING WATER FOR 2 MONTHS (STUDY DURATION: 2 MONTHS), Route [Inhibitor]: ORAL, Species: MOUSE, Target Tissue: Type of Lesion: DISTAL SMALL INTESTINE: TUMOR, Promoter: NONE); 23.75, 19.80, 17%, not significant (Dose [Inhibitor]: 0.5% IN DRINKING WATER FOR 2 MONTHS (STUDY DURATION: 2 MONTHS), Route [Inhibitor]: ORAL, Species: MOUSE, Target Tissue: Type of Lesion: MIDDLE SMALL INTESTINE: TUMOR, Promoter: NONE); 7.63, 6.40, 16%, not significant (Dose [Inhibitor]: 0.5% IN DRINKING WATER FOR 2 MONTHS (STUDY DURATION: 2 MONTHS), Route [Inhibitor]: ORAL, Species: MOUSE, Target Tissue: Type of Lesion: PROXIMAL SMALL INTESTINE: TUMOR, Promoter: NONE); 10.38, 1.73, 83%, p<0.001 (Dose [Inhibitor]: 1.0% IN DRINKING WATER FOR 2 MONTHS (STUDY DURATION: 2 MONTHS), Route [Inhibitor]: ORAL, Species: MOUSE, Target Tissue: Type of Lesion: DISTAL SMALL INTESTINE: TUMOR, Promoter: NONE); 23.75, 13.80, 42%,p<0.01 (Dose [Inhibitor]: 1.0% IN DRINKING WATER FOR 2 MONTHS (STUDY DURATION: 2 MONTHS), Route [Inhibitor]: ORAL, Species: MOUSE, Target Tissue: Type of Lesion: MIDDLE SMALL INTESTINE: TUMOR, Promoter: NONE).
